We go through two compounds from the NIST ThermoML archive (doi:10.1016/j.jct.2004.08.006).

The conditions of this data set: 298.15 K; 101.33 kPa; Crystal.

± gives the expanded uncertainty stated by the source.

Take `O=C(O)c1cnccn1` [2-pyrazinecarboxylic acid]: the mass density is on record as 1200 ± 200 kg/m3.
Turning to `NC(=O)c1cnccn1` [pyrazinecarboxamide], the mass density came out at 1100 ± 200 kg/m3.

As a reminder, the mass density is the mass of a sample divided by its volume.
